Experimental data as given in article PMC8617627, “Novel DYRK1A Inhibitor Rescues Learning and Memory Deficits in a Mouse Model of Down Syndrome” (Pharmaceuticals, 2021).
Read-outs that look alike come from different tables or passages of the source.

Columns and labels:
Assay in all cases: Kinase profile (33P ATP filter binding)
Assay type in all cases: biochemical
PKCa = PKCa (Homo sapiens, UniProt P17252); settings: read-out: Remaining protein kinase activity
Description: (§1) The compounds were diluted to the appropriate concentration. The compounds were added to a “mother plate” consisting of samples, controls, and blanks. These serve as the source for “daughter plates” which are stored at −20 °C until assay initiation. Protein Kinases: Enzyme/Substrate mixture was added to the compound, and the compounds were incubated for five minutes at room temperature (RT). ^33P ATP was added to the compounds to initiate the assay. Orthophosphoric acid was added to the compounds to halt the assay. Assay components were harvested onto P81 filter plates, filter plates were air-dried, scintillation fluid was added to plates, and counts were read on a Topcount NXT. A mean percentage activity was calculated.

MARK2 = MARK2 (Homo sapiens, UniProt Q7KZI7); settings: read-out: Remaining protein kinase activity
Description: as §1

TTBK2 = TTBK2 (Homo sapiens, UniProt Q6IQ55)
Description: as §1

IRR = IRR (Homo sapiens, UniProt P14616); settings: read-out: Remaining protein kinase activity
Description: as §1

NEK2a = biological target: T1, NEK2a (Homo sapiens, UniProt P51955); settings: read-out: Remaining protein kinase activity
T1 sequence (P51955 1-445): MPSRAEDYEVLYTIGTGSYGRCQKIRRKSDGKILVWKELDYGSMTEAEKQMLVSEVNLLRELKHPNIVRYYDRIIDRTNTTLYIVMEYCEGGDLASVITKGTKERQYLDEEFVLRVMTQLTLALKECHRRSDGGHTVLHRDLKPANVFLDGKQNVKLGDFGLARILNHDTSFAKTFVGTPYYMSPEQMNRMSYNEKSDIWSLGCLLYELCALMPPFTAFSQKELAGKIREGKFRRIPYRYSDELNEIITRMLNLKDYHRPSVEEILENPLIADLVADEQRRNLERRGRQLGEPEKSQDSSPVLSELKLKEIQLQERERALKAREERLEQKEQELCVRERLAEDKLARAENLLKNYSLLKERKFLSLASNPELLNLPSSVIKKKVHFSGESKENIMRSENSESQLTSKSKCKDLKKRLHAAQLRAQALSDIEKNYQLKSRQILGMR
Description: as §1

MNK2 = MNK2 (Homo sapiens, UniProt Q9HBH9); settings: read-out: Remaining protein kinase activity
Description: as §1

PDK1 = biological target: T2, PDK1 (Homo sapiens, UniProt O15530); settings: read-out: Remaining protein kinase activity
T2 sequence (O15530 1-556): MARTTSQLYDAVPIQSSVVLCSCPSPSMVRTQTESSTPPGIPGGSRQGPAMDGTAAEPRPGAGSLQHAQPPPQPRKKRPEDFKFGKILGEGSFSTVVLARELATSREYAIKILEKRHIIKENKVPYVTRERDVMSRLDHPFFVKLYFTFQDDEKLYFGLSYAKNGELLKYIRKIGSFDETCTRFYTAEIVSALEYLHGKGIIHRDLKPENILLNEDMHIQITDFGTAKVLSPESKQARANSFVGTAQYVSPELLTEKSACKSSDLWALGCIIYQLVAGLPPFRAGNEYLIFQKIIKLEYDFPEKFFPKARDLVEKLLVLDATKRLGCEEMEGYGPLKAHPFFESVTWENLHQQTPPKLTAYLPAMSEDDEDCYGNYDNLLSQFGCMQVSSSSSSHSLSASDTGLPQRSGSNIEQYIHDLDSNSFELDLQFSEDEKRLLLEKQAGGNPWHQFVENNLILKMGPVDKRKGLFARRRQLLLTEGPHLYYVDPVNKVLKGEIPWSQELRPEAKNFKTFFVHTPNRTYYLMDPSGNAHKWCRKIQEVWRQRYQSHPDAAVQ
Description: as §1

NEK6 = NEK6 (Homo sapiens, UniProt Q9HC98); settings: read-out: Remaining protein kinase activity
Description: as §1

BTK = BTK (Homo sapiens, UniProt Q06187)
Description: as §1

Chain of MARK2 (Q7KZI7 whole entry): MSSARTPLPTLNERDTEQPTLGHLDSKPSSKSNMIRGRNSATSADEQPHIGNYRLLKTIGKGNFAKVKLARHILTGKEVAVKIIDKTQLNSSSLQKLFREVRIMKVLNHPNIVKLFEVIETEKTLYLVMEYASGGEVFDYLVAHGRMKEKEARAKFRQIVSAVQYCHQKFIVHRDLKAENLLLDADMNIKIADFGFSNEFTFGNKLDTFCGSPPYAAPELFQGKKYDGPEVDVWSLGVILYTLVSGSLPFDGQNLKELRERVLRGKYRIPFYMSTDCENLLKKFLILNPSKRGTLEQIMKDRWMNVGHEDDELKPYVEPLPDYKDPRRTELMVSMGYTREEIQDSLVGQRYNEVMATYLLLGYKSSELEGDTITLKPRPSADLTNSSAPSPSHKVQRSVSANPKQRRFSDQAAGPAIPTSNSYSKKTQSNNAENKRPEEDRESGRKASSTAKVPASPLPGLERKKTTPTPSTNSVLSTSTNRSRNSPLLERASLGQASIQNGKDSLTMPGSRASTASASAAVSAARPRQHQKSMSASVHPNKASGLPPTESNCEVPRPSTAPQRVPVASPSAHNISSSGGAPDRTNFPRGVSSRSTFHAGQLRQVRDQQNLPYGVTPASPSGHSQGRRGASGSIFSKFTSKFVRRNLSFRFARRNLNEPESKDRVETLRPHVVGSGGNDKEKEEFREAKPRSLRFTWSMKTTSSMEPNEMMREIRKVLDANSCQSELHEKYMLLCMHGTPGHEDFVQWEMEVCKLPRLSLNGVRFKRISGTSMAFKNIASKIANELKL
Chain of BTK (Q06187 whole entry): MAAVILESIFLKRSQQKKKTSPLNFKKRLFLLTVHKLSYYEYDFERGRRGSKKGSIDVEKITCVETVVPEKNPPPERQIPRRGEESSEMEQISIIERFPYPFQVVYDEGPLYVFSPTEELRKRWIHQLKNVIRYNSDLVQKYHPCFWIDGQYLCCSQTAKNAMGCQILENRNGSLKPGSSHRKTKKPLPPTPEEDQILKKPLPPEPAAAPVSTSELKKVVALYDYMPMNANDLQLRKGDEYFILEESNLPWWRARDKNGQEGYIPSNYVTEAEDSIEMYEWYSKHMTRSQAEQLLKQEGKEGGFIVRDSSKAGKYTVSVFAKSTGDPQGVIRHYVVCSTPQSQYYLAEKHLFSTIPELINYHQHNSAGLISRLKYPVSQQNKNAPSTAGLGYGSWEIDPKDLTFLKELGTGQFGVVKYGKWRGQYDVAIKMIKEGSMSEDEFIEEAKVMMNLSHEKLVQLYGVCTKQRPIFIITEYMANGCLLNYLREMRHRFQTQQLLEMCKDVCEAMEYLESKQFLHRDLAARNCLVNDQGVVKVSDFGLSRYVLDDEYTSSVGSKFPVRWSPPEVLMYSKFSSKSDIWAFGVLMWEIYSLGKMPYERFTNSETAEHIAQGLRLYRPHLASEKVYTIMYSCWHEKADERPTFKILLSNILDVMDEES
Chain of TTBK2 (Q6IQ55 whole entry): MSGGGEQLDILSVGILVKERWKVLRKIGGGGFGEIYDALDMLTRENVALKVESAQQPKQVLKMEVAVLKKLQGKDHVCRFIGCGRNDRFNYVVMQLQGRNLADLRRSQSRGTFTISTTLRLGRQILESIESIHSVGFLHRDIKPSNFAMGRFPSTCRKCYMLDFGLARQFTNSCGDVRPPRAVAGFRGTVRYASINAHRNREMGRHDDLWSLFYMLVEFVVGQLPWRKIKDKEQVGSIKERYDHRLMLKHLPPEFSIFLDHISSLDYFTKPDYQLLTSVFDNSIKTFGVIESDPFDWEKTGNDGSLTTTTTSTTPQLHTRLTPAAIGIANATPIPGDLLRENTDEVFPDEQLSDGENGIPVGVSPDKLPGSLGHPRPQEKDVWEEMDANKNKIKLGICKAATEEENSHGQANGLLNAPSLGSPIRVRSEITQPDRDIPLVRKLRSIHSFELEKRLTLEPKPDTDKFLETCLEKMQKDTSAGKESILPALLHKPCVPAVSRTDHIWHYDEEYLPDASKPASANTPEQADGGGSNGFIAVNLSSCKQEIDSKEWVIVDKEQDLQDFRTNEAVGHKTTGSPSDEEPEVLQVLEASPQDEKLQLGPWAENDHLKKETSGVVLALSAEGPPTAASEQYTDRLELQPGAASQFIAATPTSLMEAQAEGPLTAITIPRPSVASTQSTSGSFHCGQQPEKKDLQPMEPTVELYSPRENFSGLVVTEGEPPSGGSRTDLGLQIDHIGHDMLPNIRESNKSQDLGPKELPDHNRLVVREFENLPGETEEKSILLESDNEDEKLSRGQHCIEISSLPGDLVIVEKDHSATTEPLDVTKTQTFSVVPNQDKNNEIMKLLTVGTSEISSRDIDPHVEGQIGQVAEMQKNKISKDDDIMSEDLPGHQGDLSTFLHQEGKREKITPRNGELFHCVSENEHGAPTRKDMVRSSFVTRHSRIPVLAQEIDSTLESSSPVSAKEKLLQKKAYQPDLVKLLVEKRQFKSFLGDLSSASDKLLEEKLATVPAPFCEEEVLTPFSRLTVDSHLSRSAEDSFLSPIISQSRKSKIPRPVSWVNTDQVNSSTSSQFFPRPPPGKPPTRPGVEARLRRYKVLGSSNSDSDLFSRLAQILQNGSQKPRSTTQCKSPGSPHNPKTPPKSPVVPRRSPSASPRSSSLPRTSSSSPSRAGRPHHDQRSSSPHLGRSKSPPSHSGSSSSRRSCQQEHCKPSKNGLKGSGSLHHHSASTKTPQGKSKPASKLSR
Chain of IRR (P14616 27-1297): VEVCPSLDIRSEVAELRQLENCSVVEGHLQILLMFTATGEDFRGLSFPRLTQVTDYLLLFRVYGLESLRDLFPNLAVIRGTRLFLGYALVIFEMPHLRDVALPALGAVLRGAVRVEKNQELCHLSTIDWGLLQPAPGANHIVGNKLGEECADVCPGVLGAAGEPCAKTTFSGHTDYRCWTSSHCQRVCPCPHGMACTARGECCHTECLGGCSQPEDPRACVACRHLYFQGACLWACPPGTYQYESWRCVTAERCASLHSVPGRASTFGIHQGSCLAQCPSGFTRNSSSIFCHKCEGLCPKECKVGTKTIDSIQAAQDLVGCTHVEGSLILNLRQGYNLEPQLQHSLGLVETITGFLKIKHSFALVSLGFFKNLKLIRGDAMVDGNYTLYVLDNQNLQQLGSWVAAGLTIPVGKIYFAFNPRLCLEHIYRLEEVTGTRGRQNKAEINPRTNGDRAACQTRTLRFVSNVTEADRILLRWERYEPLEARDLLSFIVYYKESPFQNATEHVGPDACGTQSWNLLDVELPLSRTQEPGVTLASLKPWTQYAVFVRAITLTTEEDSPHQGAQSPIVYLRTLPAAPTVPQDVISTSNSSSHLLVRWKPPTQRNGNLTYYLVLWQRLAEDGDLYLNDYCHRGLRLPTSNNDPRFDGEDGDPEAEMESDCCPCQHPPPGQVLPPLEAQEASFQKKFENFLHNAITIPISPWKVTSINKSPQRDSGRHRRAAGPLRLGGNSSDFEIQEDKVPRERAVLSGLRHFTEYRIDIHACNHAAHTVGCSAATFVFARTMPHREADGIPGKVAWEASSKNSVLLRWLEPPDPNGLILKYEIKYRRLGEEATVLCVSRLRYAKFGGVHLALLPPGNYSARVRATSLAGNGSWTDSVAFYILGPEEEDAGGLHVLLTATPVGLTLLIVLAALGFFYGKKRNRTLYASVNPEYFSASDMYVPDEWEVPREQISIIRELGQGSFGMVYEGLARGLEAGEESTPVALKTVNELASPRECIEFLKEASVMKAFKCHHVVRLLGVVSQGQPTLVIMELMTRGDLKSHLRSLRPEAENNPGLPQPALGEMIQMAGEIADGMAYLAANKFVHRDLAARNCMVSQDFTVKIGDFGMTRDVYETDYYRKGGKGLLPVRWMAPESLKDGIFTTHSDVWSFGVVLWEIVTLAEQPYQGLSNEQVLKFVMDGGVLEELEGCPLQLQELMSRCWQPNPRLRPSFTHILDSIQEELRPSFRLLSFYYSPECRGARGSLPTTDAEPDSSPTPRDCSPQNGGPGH
Chain of NEK6 (Q9HC98 whole entry): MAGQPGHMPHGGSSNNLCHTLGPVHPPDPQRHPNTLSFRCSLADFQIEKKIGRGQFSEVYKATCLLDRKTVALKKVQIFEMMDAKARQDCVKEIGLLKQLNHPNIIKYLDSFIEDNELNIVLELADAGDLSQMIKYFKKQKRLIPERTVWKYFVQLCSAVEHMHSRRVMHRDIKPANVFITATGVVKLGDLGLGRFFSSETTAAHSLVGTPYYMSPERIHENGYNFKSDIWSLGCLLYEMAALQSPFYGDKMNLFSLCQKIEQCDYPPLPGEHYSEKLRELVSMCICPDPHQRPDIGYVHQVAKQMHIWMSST

COc1ccc2sc(-c3cncc(NC(C)=O)c3)nc2c1 [PST-001, N-(5-(5-Methoxybenzo[d]thiazol-2-yl)pyridin-3-yl)acetamide]
remaining activity at 1 µM (PKCa): 119%
remaining activity at 100 µM (PKCa): 85%
remaining activity at 1 µM (MARK2): 116%
remaining activity at 100 µM (MARK2): 106%
Remaining protein kinase activity (TTBK2; 1 μM): 119%
Remaining protein kinase activity (TTBK2; 100 μM): 117%
remaining activity at 1 µM (IRR): 117%
remaining activity at 100 µM (IRR): 120%
remaining activity at 1 µM (NEK2a): 119%
remaining activity at 1 µM (MNK2): 106%
remaining activity at 100 µM (MNK2): 66%
remaining activity at 1 µM (PDK1): 110%
remaining activity at 100 µM (PDK1): 105%
remaining activity at 1 µM (NEK6): 112%
remaining activity at 100 µM (NEK6): 113%
Remaining protein kinase activity (BTK; 1 μM): 92%
Remaining protein kinase activity (BTK; 100 μM): 86%

COc1ccc2sc(-c3cncc(N)c3)nc2c1 [compound 1, 5-(5-Methoxybenzo[d]thiazol-2-yl)pyridin-3-amine]
remaining activity at 1 µM (PKCa; PKCa, 1 μM): 110%
remaining activity at 100 µM (PKCa; PKCa, 100 μM): 63%
remaining activity at 1 µM (MARK2; MARK2, 1 μM): 112%
remaining activity at 100 µM (MARK2; MARK2, 100 μM): 62%
Remaining protein kinase activity (TTBK2; 1 μM): 123%
Remaining protein kinase activity (TTBK2; 100 μM): 103%
remaining activity at 1 µM (IRR; IRR, 1 μM): 113%
remaining activity at 100 µM (IRR; IRR, 100 μM): 77%
remaining activity at 1 µM (NEK2a; NEK2a, 1 μM): 111%
remaining activity at 100 µM (NEK2a; NEK2a, 100 μM): 51%
remaining activity at 1 µM (MNK2; MNK2, 1 μM): 90%
remaining activity at 100 µM (MNK2; MNK2, 100 μM): 27%
remaining activity at 1 µM (PDK1; PDK1, 1 μM): 104%
remaining activity at 100 µM (PDK1; PDK1, 100 μM): 67%
remaining activity at 1 µM (NEK6; NEK6, 1 μM): 106%
remaining activity at 100 µM (NEK6; NEK6, 100 μM): 115%
Remaining protein kinase activity (BTK; 1 μM): 101%
Remaining protein kinase activity (BTK; 100 μM): 31%
